Data published in patent US12064480B2, “Immunigenic alpha-branched trehalose-diesters” (GLAXOSMITHKLINE BIOLOGICALS SA, priority 2018, dated 2024).

Columns and labels:
mouse Raw cell line = test: Cytokine production (TNFα) from mouse Raw cells; assay type: cell-based; details: for TNFα potency in mouse cell line compared to human cells: mouse Raw cells vs human cells; for TNFα potency in mouse cell line compared to human cells / TNFα efficacy/peak levels relative to the other reference compounds / TNFα potency relative to sTDCM: FIG. 4A
Text: The compounds were screened for their ability to induce TNFα from the mouse Raw cell line. An aim of this study was to determine if species specific differences in responses to compounds may be observed.

human PBMCs = test: Cytokine production from human PBMCs (Luminex multiplex panel); assay type: cell-based; details: human cells
Experimental: TDM (trehalose-6,6′-dimycolate) was obtained from Sigma. TDB (6,6′-dibehenoyl-α,α′-trehalose) was obtained from Avanti Polar Lipids. MMG (glycerol monomycolate) was prepared according to the procedure of Andersen et. al. sTDCM (synthetic trehalose dicorynomycolate) was obtained from Sigma-Aldrich (Catalog Number S3452).
PBMCs were obtained via leukapheresis from normal donors (AllCells, Berkeley, CA). Upon receipt PBMCs were repeatedly washed in 1×PBS and cryopreserved in freezing media (50% RPMI, 40% FCS, 10% DMSO) for future use. For assay, cells were immediately thawed into RPMI media, 10% heat inactivated FBS, 1× penicillin/streptomycin/glutamine (complete media), washed once and resuspended to the desired cell concentration in complete media. Cells were treated with the indicated compound concentrations by addition to plates containing serial dilution of the stock compound in diluent (50% isopropanol/50% isooctane). Compounds were applied, 20 ul final volume, to the bottom of a tissue culture plate and solvent was allowed to fully evaporate (i.e. plate coating) before cell addition.
Supernatants were harvested from treated cells 18-24 h post cell application. Supernatants were analyzed using a Luminex multiplex panel for analytes TNFα, IL-1β, IL-6, IFNγ, IL-12p70 and IL-23 per the manufacturer's instructions.

Compound	TNFα potency in mouse cell line compared to human cells (mouse Raw cell line)	TNFα efficacy/peak levels relative to the other reference compounds (mouse Raw cell line; mouse Raw cells)	TNFα potency relative to sTDCM (mouse Raw cell line; mouse Raw cells)	fold less potent than sTDCM (mouse Raw cell line; mouse Raw cells, TNFα)	TNFα induction (activity) (mouse Raw cell line; mouse Raw cells, FIG. 4)	MMG/sTDCM potency difference (human PBMCs) [fold]
CCCCCCCCCCCCCCCCCCCCCC(=O)OC[C@H]1O[C@H](O[C@H]2O[C@H](COC(=O)CCCCCCCCCCCCCCCCCCCCC)[C@@H](O)[C@H](O)[C@H]2O)[C@H](O)[C@@H](O)[C@@H]1O [TDB, 6,6′-dibehenoyl-α,α′-trehalose]	more potent in the mouse cell line as compared to human cells	higher efficacy/peak levels	equivalent potency			
trehalose-6,6′-dimycolate [TDM]	more potent in the mouse cell line as compared to human cells	higher efficacy/peak levels	equivalent potency			
glycerol monomycolate [MMG]		equivalent levels		over 100 fold	some activity	~10
